The supplement of paper PMC10307832

Key:
Assay in all cases: relative viability (nuclei count vs DMSO), 5 days (fraction); higher = more cells survive
[1] = compound: C1=CC=C(C(=C1)C2=CC=C(C=C2)C3=CSC4=C3C(=C(C(=O)N4)C#N)O)O + Cc1nc(Nc2ncc(C(=O)Nc3c(C)cccc3Cl)s2)cc(N2CCN(CCO)CC2)n1 [Dasatinib] (partner 0.075 µM)
Summary of the method: (§1)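 Lung cancer cell lines were seeded in 1536-well plates and dosed by pin tool the next day, with either a single drug or a fixed anchor-drug dose combined with five library-drug doses (not always all listed) spaced in √10 steps. Five days later, one step fixed the cells and stained their nuclei (final 0.05% Triton X-100, 1% formaldehyde, 1 ug/ml Hoechst), and nuclei were counted on 4× images. Relative viability is the nuclei count in treated wells divided by the count in vehicle wells, and each value is the median of duplicate plates.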

TGX 221 + Navitoclax = compound: CC1=CN2C(=O)C=C(N=C2C(=C1)C(C)NC3=CC=CC=C3)N4CCOCC4 [TGX 221] + CC1(C)CCC(c2ccc(Cl)cc2)=C(CN2CCN(c3ccc(C(=O)NS(=O)(=O)c4ccc(N[C@H](CCN5CCOCC5)CSc5ccccc5)c(S(=O)(=O)C(F)(F)F)c4)cc3)CC2)C1 [Navitoclax] (partner 0.5 µM)
Summary of the method: as §1

TGX 221 + Pictilisib = compound: CC1=CN2C(=O)C=C(N=C2C(=C1)C(C)NC3=CC=CC=C3)N4CCOCC4 [TGX 221] + CS(=O)(=O)N1CCN(Cc2cc3nc(-c4cccc5[nH]ncc45)nc(N4CCOCC4)c3s2)CC1 [Pictilisib] (partner 1 µM)
Summary of the method: as §1

[2] = compound: O=C(CCCCCCNC(=O)c1cnc(N(c2ccccc2)c2ccccc2)nc1)NO [Ricolinostat] + CC(=O)Nc1cccc(-n2c(=O)n(C3CC3)c(=O)c3c(Nc4ccc(I)cc4F)n(C)c(=O)c(C)c32)c1 [Trametinib] (partner 0.02 µM)
Summary of the method: as §1

Work on NCI-H1792 yielded a relative viability ([1]; first compound 0.253 µM) of 0.803, a relative viability ([1]; first compound 2.53 µM) of 0.722 and a relative viability ([1]; first compound 8 µM) of 0.508. For the same cell line, the relative viability (TGX 221 + Navitoclax; first compound 0.08 µM) was 0.549, the relative viability (TGX 221 + Navitoclax; first compound 0.253 µM) was 0.713 and the relative viability (TGX 221 + Navitoclax; first compound 0.8 µM) was 0.591. It also gave a relative viability (TGX 221 + Navitoclax; first compound 2.53 µM) of 0.62, a relative viability (TGX 221 + Navitoclax; first compound 8 µM) of 0.625 and a relative viability (TGX 221 + Pictilisib; first compound 0.08 µM) of 0.29. The relative viability (TGX 221 + Pictilisib; first compound 0.253 µM) was 0.281, the relative viability (TGX 221 + Pictilisib; first compound 0.8 µM) was 0.294 and the relative viability (TGX 221 + Pictilisib; first compound 2.53 µM) was 0.246. It also gave a relative viability (TGX 221 + Pictilisib; first compound 8 µM) of 0.228, a relative viability ([2]; first compound 0.253 µM) of 0.486 and a relative viability ([2]; first compound 0.8 µM) of 0.418. It also gave a relative viability ([2]; first compound 2.53 µM) of 0.468.
